Assay results published in US8637664B2, “Alkyl 4- [4- (5-oxo-2,3,5, 11a-tetrahydo-5H-pyrrolo [2, 1-c] [1,4] benzodiazepine-8-yloxy)-butyrylamino]-1H-pyrrole-2-carboxylate derivatives and related compounds for the treatment of a proliferative disease” (Spirogen SARL, priority 2005, dated 2014).
pIC50: −log10 of the molar value. Read-outs that look alike come from different tables or passages of the source. Marks after values point to notes of the source that are not given here.

How the values were obtained:
[1] = tested on: calf thymus DNA (CT-DNA); test: DNA thermal denaturation (melting) studies; format: binding; conditions: CT-DNA 100 μM DNAp, compound 20 μM, 37 °C; for Induced ΔTm after incubation 0 hours: pH 7.00, 0 hours; for Induced ΔTm after incubation 4 hours: pH 7.00, 4 hours; for Induced ΔTm after incubation 18 hours: pH 7.00, 18 hours
Protocol: The PBD agents were subjected to DNA thermal melting (denaturation) studies (Gregson, S. J., et al., Journal of Medicinal Chemistry, 44(5), 737-748 (2001); Jones, G. B., et al., Anti-Cancer Drug Design, 5(3), 249-264 (1990); McConnaughie, A. W. and; Jenkins, T. C. Journal of Medicinal Chemistry, 38(18), 3488-3501 (1995)) using calf thymus DNA (CT-DNA, type-1, highly polymerized sodium salt; 42% G+C [Sigma]) at a fixed 100 μM (DNAp=50 μM bp) concentration, determined using an extinction coefficient of 6600 (M phosphate)^−1 cm^−1 at 260 nm (Manzini, G., et al., Nucleic Acids Research, 11(24), 8861-8876 (1983)). Solutions were prepared in pH 7.00±0.01 aqueous buffer containing 10 mM NaH2PO4/Na2HPO4 and 1 mM EDTA. Working solutions containing CT-DNA and the test compound (20 μM) were incubated at 37.0±0.1° C. for 0 to 18 hours using an external water bath. Samples were monitored at 260 nm using a Varian-Cary 400 Bio spectrophotometer fitted with a Peltier heating accessory. Heating was applied at a rate of 1° C./min in the 45 to 98° C. temperature range, with optical and temperature data sampling at 200 ms intervals. A separate experiment was carried out using buffer alone, and this baseline was subtracted from each DNA melting curve before data treatment. Optical data were imported into the Origin 5 program (MicroCal Inc., Northampton, Mass.) for analysis. DNA helix→coil transition temperatures (Tm) were determined at the midpoint of the normalized melting profiles using a published analytical procedure (Jones, G. B., et al., Anti-Cancer Drug Design, 5(3), 249-264 (1990)). Results are given in table 1 as the mean±standard deviation from at least three determinations. Ligand-induced alterations in DNA melting behaviour (ΔTm) are given by ΔTm=Tm(DNA+ligand)−Tm(DNA), where the Tm value determined for free CT-DNA is 67.82±0.06° C. (averaged from >90 runs). All PBD compounds were dissolved in HPLC-grade MeOH to give working solutions containing ≦0.6% v/v MeOH; Tm results were corrected for the effects of MeOH co-solvent by using a linear correction term.
The above method was also carried out on the compounds of example 2, with all compounds being incubated for up to 72 hours.

[2] = target: 262 bp DNA fragment (MS2F or MS2R) of MS2 plasmid; test: DNase I footprinting on MS2 DNA fragment; format: binding
Protocol: The sequence selectivity of the six PBD-pyrrole conjugates (21, 23, 25, 27, 29) was evaluated by standard DNA footprinting on a fragment of MS2 as follows, in accordance with the technique described in Martin, C., et al., (Martin, C., et al., Biochemistry, 44(11), 4135-4147 (2005))
Forward (5′-[…]-3′) or reverse (5′-[…]-3′) primer was 5′-end labelled with ^32P by T4 polynucleotide kinase. Labelling mixture contained primer (5 pmol; Sigma-Genosys), 10× kinase buffer (1 μl; Promega), (γ-^32P)-ATP (2μ of 10 μCi/μl, 6000 Ci/mmol; Perkin Elmer Life Sciences), and T4 polynucleotide kinase (10 U; Promega) in a 10 μl final volume. Labelling mix was incubated at 37° C. for 30 minutes followed by inactivation of the kinase at 70° C. for 10 minutes. A 262 bp DNA fragment (MS2F or MS2R) was amplified from the MS2 plasmid using PCR with either labelled forward or reverse primer and the unlabelled primer as required. Reactions were comprised of labelled primer mix (10 μl), 10×PCR buffer (5 μl; Sigma), dNTPs (5 μl; 2.5 mM each of A, C, G and T, Amersham Pharmacia), unlabelled primer as required ([…]), MS2 plasmid template DNA (10 ng) and Taq DNA polymerase (5 U; Sigma) in a 50 μl final volume. Radiolabelled 262-mer was purified by non-denaturing polyacrylamide gel electrophoresis, elution, filtration and EtOH precipitation and was resuspended in a solution of Tris-HCl (10 mM) pH 7.4/NaCl (10 mM) to yield an activity of 200 counts per second per 5 μl when held up, in a pipette tip, to a capped Morgan series 900 mini-monitor.
For DNase I footprinting radiolabelled 262-mer (2 μl) was incubated overnight (16-18 h) with drug solution (388 μl) or in an aqueous buffer [HEPES (20 mM) pH 7.9, NaCl (50 mM), MgCl2 (1 mM), DTT (5 mM), 10% glycerol] in control reactions. Enzymatic cleavage was initiated by addition of DNase I solution (10 μl of 0.05 U/ml; Sigma) in aqueous NaCl (200 mM), MgCl2 (20 mM) and MnCl2 (20 mM) and halted with stop solution [40 μl of NaCl (2.25 M), EDTA (150 mM) pH 8.0, 0.57 μg/μl glycogen (0.57 μg/μl; Roche), poly(dl-dC).poly(dl-dC) DNA (19.3 ng/μl; Amersham Pharmacia)]. From this mixture, digested DNA fragments were prepared for electrophoresis following the protocol of Trauger & Dervan, and were loaded on to a preheated 8% denaturing polyacrylamide gel. Electrophoresis in 1×TBE buffer was allowed to proceed for 100 min at 70 W (1600-2000 V). The gel was the fixed in acetic acid (10% v/v) and methanol (10% v/v) for 15 minutes followed by being blotted onto Whatman 3 mM paper and vacuum-dried at 80° C. for 45 minutes.
Dried gels were stored at room temperature in phosphor storage screens (Molecular Dynamics) for a minimum period of 12 h. Data were collected from exposed screens using a Molecular Dynamics 425E Phosphorlmager and transferred to ImageQuant v1.2 software (Molecular Dynamics) for analysis. Data were expressed as the differential cleavage between control and sample lanes. Peaks were integrated and differential cleavage calculated as ln(fd)−ln(fc); (fd is the fractional cleavage at any particular bond in the presence of drug and fc is the fractional cleavage of the same bond in the control). Maxam-Gilbert G+A marker lanes were prepared in the usual fashion.
The vast majority of footprint sites are common features in the binding profiles of all six conjugates, with only a small number of sites being footprinted by a subset of the family. Even more unexpectedly, no site is footprinted by only one molecule (in fact, the fewest number of conjugates that bind at any single site is four). The differential cleavage plot provides footprinting profiles at a supramaximal concentration colour-coded for each conjugate which illustrates a striking degree of overlap. Although there is no conspicuous change in footprinting patterns as the number of pyrroles units in each conjugate increases, there are changes in two other features, namely, the apparent binding affinity and the width of the footprinted site. […]

[3] = tested on: K562 human chronic myeloid leukaemia cells; test: In vitro cytotoxicity, MTT assay; format: cell-based; conditions: K562, 1 hour drug exposure, MTT after 4 days
Protocol: K562 human chronic myeloid leukaemia cells were maintained in RPM1 1640 medium supplemented with 10% fetal calf serum and 2 mM glutamine at 37° C. in a humidified atmosphere containing 5% CO2 and were incubated with a specified dose of drug for 1 hour at 37° C. in the dark. The incubation was terminated by centrifugation (5 min, 300 g) and the cells were washed once with drug-free medium. Following the appropriate drug treatment, the cells were transferred to 96-well microtiter plates (10^4 cells per well, 8 wells per sample). Plates were then kept in the dark at 37° C. in a humidified atmosphere containing 5% CO2. The assay is based on the ability of viable cells to reduce a yellow soluble tetrazolium salt, 3-(4,5-dimethylthiazol-2-yl)-2,5-diphenyl-2H-tetrazolium bromide (MTT, Aldrich-Sigma), to an insoluble purple formazan precipitate. Following incubation of the plates for 4 days (to allow control cells to increase in number by approximately 10 fold), 20 μL of MTT solution (5 mg/mL in phosphate-buffered saline) was added to each well and the plates further incubated for 5 hours. The plates were then centrifuged for 5 minutes at 300 g and the bulk of the medium pipetted from the cell pellet leaving 10-20 μL per well. DMSO (200 μL) was added to each well and the samples agitated to ensure complete mixing. The optical density was then read at a wavelength of 550 nm on a Titertek Multiscan ELISA plate reader, and a dose-response curve was constructed.

[4] = tested on: NF-Y binding at ICB1 of Topoisomerase IIα promoter; test: NF-Y gel shift assay (EMSA) at ICB1
[5] = tested on: 170 bp sequence of the human Topo-IIa promoter; test: DNase I footprinting on Topo-IIa promoter (ICB1, ICB2 sites); format: binding
Protocol: In a similar manner to Example 4, the affinity and sequence selectivity of certain compounds of examples 1 and 2 was evaluated by standard DNA footprinting on a 170 bp sequence of the human Topo-IIa promoter, in accordance with the technique described in Martin, C., et al.
Selected results are shown in FIG. 9, wherein the concentrations of the lanes were 0, 1.6, 8, 40, 200, 1000, 5000 and 25000 nM in each case.
The footprinting results allowed the identification of compounds that could potentially disrupt transcription factor binding at the ICB1 and ICB2 sites. […] These compounds are detailed below in table 3, showing the concentrations (μM) at which the PBD-heterocycle conjugates bind at ICB1 and ICB2.

[6] = tested on: NF-Y binding at ICB2 of Topoisomerase IIα promoter; test: NF-Y gel shift assay (EMSA) at ICB2
[7] = read-out: DNase IC50 (apparent binding affinity; 50% inhibition of DNase I-mediated cleavage), estimated by eye, site 5′-62CAATACACA70-3′

In the case of `COC(=O)c1cc(NC(=O)c2cc(NC(=O)c3cc(NC(=O)c4cc(NC(=O)CCCOc5cc6c(cc5OC)C(=O)N5CCC[C@H]5C=N6)cn4C)cn3C)cn2C)cn1C` [Compound 27, (11aS) Methyl 4-[(4-{[4-({4-[4-(7-Methoxy-5-oxo-2,3,5,11a-tetrahydro-5H-pyrrolo[2,1-c][1,4]benzodiazepine-8-yloxy)-butyrylamino]-1-methyl-1H-pyrrole-2-carbonyl]-amino)-1-methyl-1H-pyrrole-2-carbonyl]-amino}-1-methyl-1H-pyrrole-2-carbonyl)-amino]-1-methyl-1H-pyrrole-2-carboxylate], the “Induced ΔTm after incubation 0 hours” value [1] was 16.0 °C, the “Induced ΔTm after incubation 4 hours” value [1] was 18.5 °C and the “Induced ΔTm after incubation 18 hours” value [1] was 19.0^y ° C. The pIC50 [2, 7] was roughly 7.52 and the pIC50 [3] was 7.33.

`COC(=O)c1cc(NC(=O)c2cc(NC(=O)c3cc(NC(=O)CCCOc4cc5c(cc4OC)C(=O)N4CCC[C@H]4C=N5)cn3C)cn2C)cn1C` [Compound 25, (11aS) Methyl 4-{[4-({4-[4-(7-Methoxy-6-oxo-2,3,5,11a-tetrahydro-5H-pyrrolo[2,1-c][1,4]benzodiazepine-8-yloxy)-butyrylamino]-1-methyl-1H-pyrrole-2-carbonyl]-amino)-1-methyl-1H-pyrrole-2-carbonyl]-amino}-1-methyl-1H-pyrrole-2-carboxylate] was tested, and the “Induced ΔTm after incubation 0 hours” value [1] was 17.3 °C, the “Induced ΔTm after incubation 4 hours” value [1] was 19.6 °C and the “Induced ΔTm after incubation 18 hours” value [1] was 21.2 °C. The pIC50 [2, 7] was 7.00 to 7.52 and the pIC50 [3] was 7.39.

In the case of `COC(=O)c1cc(NC(=O)c2cc(NC(=O)c3csc(NC(=O)CCCOc4cc5c(cc4OC)C(=O)N4CCC[C@H]4C=N5)n3)cn2C)cn1C` [Compound 69], the “Lowest concentration at which NF-Y binding inhibition was observed” value [4] was 50 µM, the “Induced ΔTm after incubation 0 hours” value [1] was 16.4 °C and the “Induced ΔTm after incubation 4 hours” value [1] was 17.4 °C. The “Induced ΔTm after incubation 18 hours” value [1] was 18.2 °C, the “Induced ΔTm after incubation 72 hours” value ([1]; pH 7.00, 72 hours) was 18.5 °C and the “Concentration at which DNA binding is observed, ICB1” value ([5]; ICB1 site) was 5 µM. The “Concentration at which DNA binding is observed, ICB2” value ([5]; ICB2 site) was 5 µM and the “Lowest concentration at which NF-Y binding inhibition was observed” value [6] was 10 µM.

With `COC(=O)c1cc(NC(=O)CCCOc2cc3c(cc2OC)C(=O)N2CCC[C@H]2C=N3)cn1C` [Compound 21, (11aS) Methyl 4-[4-(7-methoxy-5-oxo-2,3,5,11a-tetrahydro-5H-pyrrolo[2,1-c][1,4]benzodiazepine-8-yloxy)-butyrylamino]-1-methyl-1H-pyrrole-2-carboxylate] the “Induced ΔTm after incubation 0 hours” value [1] was 6.5 °C, the “Induced ΔTm after incubation 4 hours” value [1] was 7.9 °C and the “Induced ΔTm after incubation 18 hours” value [1] was 8.1 °C. The pIC50 ([2]; estimated by eye from footprint gel, read-out: DNase IC50 (apparent binding affinity)) was no more than 5.00 and the pIC50 ([3]; Homo sapiens) was 7.29.

`COC(=O)c1cc(NC(=O)c2cc(NC(=O)c3cc(NC(=O)c4cc(NC(=O)c5cc(NC(=O)CCCOc6cc7c(cc6OC)C(=O)N6CCC[C@H]6C=N7)cn5C)cn4C)cn3C)cn2C)cn1C` [Compound 29, (11aS) Methyl 4-({4-[(4-{[4-({4-[4-(7-Methoxy-5-oxo-2,3,5,11a-tetrahydro-5H-pyrrolo[2,1-c][1,4]benzodiazepine-8-yloxy)-butyrylamino]-1-methyl-1H-pyrrole-2-carbonyl]-amino)-1-methyl-1H-pyrrole-2-carbonyl]-amino}-1-methyl-1H-pyrrole-2-carbonyl)-amino]-1-methyl-1H-pyrrole-2-carbonyl}-amino)-1-methyl-1H-pyrrole-2-carboxylate] was tested, and the “Induced ΔTm after incubation 0 hours” value [1] was 15.1 °C, the “Induced ΔTm after incubation 4 hours” value [1] was 15.9 °C and the “Induced ΔTm after incubation 18 hours” value [1] was 17.1 °C. For the same compound, the pIC50 [3] was 7.08.
